According to patent publication US20230241149A1, “TRANSTHYRETIN TETRAMER STABILIZING AGENT, AND PREVENTING AGENT OR PROGRESSION SUPPRESSING AGENT FOR TRANSTHYRETIN AMYLOIDOSIS” (KANEKA CORPORATION, priority 2020, published 2023):

What was measured:
[1] = target: T1, transthyretin tetramer (Homo sapiens, UniProt P02766); details: two molecules of glabridin per tetramer; cited from earlier work
[2] = target: T1, transthyretin tetramer; assay: Stabilization of transthyretin tetramer in serum ex vivo (Test Example 1; urea denaturation, electrophoresis and Western blotting); format: biochemical; set-up: from tissue; host or cells: human serum (blood of three middle-aged or older persons)
Method: The white circles represent the ratios in the serums added with the glabridin. The black circles represent the ratios in the serums added with the medium-chain fatty acid triglyceride solution containing a hydrophobic licorice extract.
Serums were obtained from blood taken from three middle-aged or older persons. The medium-chain fatty acid triglyceride solution containing a hydrophobic licorice extract and the glabridin that were obtained in Example 2 were added to each serum (added in such a manner that the amount of the glabridin was 0, 10, and 50 μM respectively). The resulting mixtures were incubated at 25° C. for 30 minutes, and then denatured with urea. Using these samples, the transthyretins (the tetramers and the monomers) in the blood were quantitated by electrophoresis and Western blotting. The stabilization effect was investigated using the ratio of the monomers to the tetramers (monomer/tetramer).

CC1(C)C=Cc2c(ccc3c2OC[C@@H](c2ccc(O)cc2O)C3)O1 [glabridin]
effect on transthyretin tetramer and formation of amyloid fibrils [1]: binding to and stabilizing a transthyretin tetramer
ratio of the monomers to the tetramers (monomer/tetramer) ([2]; serum from three middle-aged or older persons, glabridin added at concentrations up to 50 μM, 25° C. 30 minutes, then denatured with urea): did not change
stabilization effect of the transthyretin (decreasing the ratio of the monomers and increasing the tetramers) ([2]; serum, added so that the amount of glabridin was 0, 10, 50 μM): not observed
